Columns and labels:
tumor-bearing mice = experiment: SPECT imaging in tumor-bearing mice; format: in vivo; conditions: 0.2 mL, 700 μCi tail vein, imaging 1 hour later
Method: The prepared [^99mTc-(CN3DG)6]^+ or [^99mTc-(CN5DG)6]^+ (0.2 mL, 700 μCi) is injected into tumor-bearing mice through tail vein, and SPECT imaging is performed 1 hour later.

[1] = Determination of the lipid-water partition coefficient (n-octanol/PBS); format: physicochemical
Method: One hundred μL of the labeled substance solution (50 μCi) diluted with normal saline is placed into a 2 mL centrifuge tube, and then 800 μL of n-octanol and 700 μL of PBS are added to the centrifuge tube, which is subsequently covered with a cap. The centrifuge tube is vortexed for 3 minutes (2500 r/minute), allowed to stand until the solution is layered, and centrifuged in a centrifuge for 3 minutes (3000 r/minute). Three samples of the upper organic phase and three samples of the lower aqueous phase are taken, each 100 μL, and detected in a γ-counter for the radioactive counts of the organic and aqueous phases, respectively.

S180-bearing mice = experiment: Bio-distribution in tumor-bearing mice; format: in vivo; conditions: for Blood uptake / Bone uptake / Heart uptake / Kidney uptake / Liver uptake / Lung uptake / Muscle uptake / Small intestine uptake / Spleen uptake / Stomach uptake / Tumor uptake / Tumor/blood ratio / Tumor/muscle ratio: S180-bearing mice, tail vein
Method: The labeled solution (0.1 mL, 74 KBq) is injected into mice through the tail vein, and the injection time is recorded. Then the mice were killed by cervical dislocation at different time phases (30 minutes, 60 minutes, and 120 minutes), five mice for each time phase, and the organs of interest such as heart, liver, lung, kidney, spleen, stomach, muscle, blood and tumor are taken out after dissection, and measured with a γ-counter for the radioactive count of each organ. The uptake value of each organ is obtained by calculation based on the mass of the organ (with % ID/g as the unit).

O=C(CCCCC[N+]#[C][99Tc-5]([C]#[N+]CCCCCC(=O)NC1C(O)OC(CO)C(O)C1O)([C]#[N+]CCCCCC(=O)NC1C(O)OC(CO)C(O)C1O)([C]#[N+]CCCCCC(=O)NC1C(O)OC(CO)C(O)C1O)([C]#[N+]CCCCCC(=O)NC1C(O)OC(CO)C(O)C1O)[C]#[N+]CCCCCC(=O)NC1C(O)OC(CO)C(O)C1O)NC1C(O)OC(CO)C(O)C1O (centres unmarked) [[^99mTc-(CN5DG)6]^+]
SPECT imaging: aggregation at the tumor sites (tumor-bearing mice): evident aggregation at the tumor sites
SPECT imaging: concentration in kidney (tumor-bearing mice): relatively high concentration in kidney
SPECT imaging: uptake in other organs (tumor-bearing mice): relatively low
Log P (lipid-water partition coefficient) [1]: −3.57±0.35
Blood uptake (S180-bearing mice; 30 min): 1.58 ± 0.15 % ID/g
Bone uptake (S180-bearing mice; 30 min): 0.72 ± 0.11 % ID/g
Heart uptake (S180-bearing mice; 30 min): 0.64 ± 0.12 % ID/g
Kidney uptake (S180-bearing mice; 30 min): 4.69 ± 0.76 % ID/g
Liver uptake (S180-bearing mice; 30 min): 0.61 ± 0.07 % ID/g
Lung uptake (S180-bearing mice; 30 min): 1.58 ± 0.18 % ID/g
Muscle uptake (S180-bearing mice; 30 min): 0.46 ± 0.05 % ID/g
Small intestine uptake (S180-bearing mice; 30 min): 0.74 ± 0.09 % ID/g
Spleen uptake (S180-bearing mice; 30 min): 0.51 ± 0.08 % ID/g
Stomach uptake (S180-bearing mice; 30 min): 0.50 ± 0.09 % ID/g
Tumor uptake (S180-bearing mice; 30 min): 1.83 ± 0.18 % ID/g
Tumor/blood ratio (S180-bearing mice; 30 min): 1.16
Tumor/muscle ratio (S180-bearing mice; 30 min): 3.98
Blood uptake (S180-bearing mice; 60 min): 0.55 ± 0.17 % ID/g
Bone uptake (S180-bearing mice; 60 min): 0.41 ± 0.15 % ID/g
Heart uptake (S180-bearing mice; 60 min): 0.41 ± 0.02 % ID/g
Kidney uptake (S180-bearing mice; 60 min): 2.68 ± 0.32 % ID/g
Liver uptake (S180-bearing mice; 60 min): 0.38 ± 0.08 % ID/g
Lung uptake (S180-bearing mice; 60 min): 0.59 ± 0.16 % ID/g
Muscle uptake (S180-bearing mice; 60 min): 0.27 ± 0.10 % ID/g
Small intestine uptake (S180-bearing mice; 60 min): 0.43 ± 0.07 % ID/g
Spleen uptake (S180-bearing mice; 60 min): 0.28 ± 0.07 % ID/g
Stomach uptake (S180-bearing mice; 60 min): 0.37 ± 0.14 % ID/g
Tumor uptake (S180-bearing mice; 60 min): 1.07 ± 0.21 % ID/g
Tumor/blood ratio (S180-bearing mice; 60 min): 1.94
Tumor/muscle ratio (S180-bearing mice; 60 min): 3.96
Blood uptake (S180-bearing mice; 120 min): 0.16 ± 0.02 % ID/g
Bone uptake (S180-bearing mice; 120 min): 0.15 ± 0.04 % ID/g
Heart uptake (S180-bearing mice; 120 min): 0.22 ± 0.04 % ID/g
Kidney uptake (S180-bearing mice; 120 min): 2.07 ± 0.13 % ID/g
Liver uptake (S180-bearing mice; 120 min): 0.34 ± 0.08 % ID/g
Lung uptake (S180-bearing mice; 120 min): 0.29 ± 0.06 % ID/g
Muscle uptake (S180-bearing mice; 120 min): 0.18 ± 0.03 % ID/g
Small intestine uptake (S180-bearing mice; 120 min): 0.22 ± 0.08 % ID/g
Spleen uptake (S180-bearing mice; 120 min): 0.17 ± 0.02 % ID/g
Stomach uptake (S180-bearing mice; 120 min): 0.35 ± 0.06 % ID/g
Tumor uptake (S180-bearing mice; 120 min): 0.75 ± 0.07 % ID/g
Tumor/blood ratio (S180-bearing mice; 120 min): 4.69
Tumor/muscle ratio (S180-bearing mice; 120 min): 4.16
Tumor/liver ratio (S180-bearing mice; tumor-bearing mice, 0.5 hour after injection): 3.00
